The text below walks through data of patent US20080089957A1, “Monocotyledon plant indications extract compositions, method of preparation and pharmaceutical compositions containing them” (priority 2006, published 2008).

One test concerns the target xanthine oxidase (UniProt P80457). As to the kind of experiment: Xanthine oxidase inhibitory activity assay, spectrophotometric at 295 nm. It counts as biochemical.
The next test deals with phosphodiesterases. As to the kind of experiment: Phosphodiesterase inhibitory activity assay, bis(p-nitrophenyl phosphate), 405 nm. The test is classed as biochemical. As for the experimental part: The inhibitory effect on phosphodiesterases was measured spectrophotometrically at 405 nm. A reaction mixture containing 300 μl of 100 mM Tris buffer (pH 8.9), 600 μl of 1 mM Bis(p-nitrophenyl phosphate), 100 μl of sample and 100 μl of enzyme was used for analysis. The absorption increments at 405 nm indicated formation of […] at room temperature, and the initial velocity was calculated. The inhibitory activity of phosphodiesterases was assessed as % inhibition=(1−β/α)×100, where α is the change in absorbance per minute without the sample (A blank with enzyme−A blank without enzyme), and β is the change in absorbance per minute with the sample (A test with enzyme−A test without enzyme).

Setting [1] is: Table 3, triplicate, read-out: IC50 ± SEM.
The mark [2] stands for this setting: unit inferred, read-out: IC50 on xanthine oxidase.

In general, IC50 refers to the concentration that gives 50% inhibition.

Counter-ions that a name gives are not always drawn. Like-named read-outs stand apart in the source and are kept apart here.

Experimental for xanthine oxidase: A reaction mixture containing 200 mM sodium pyrophosphate buffer (pH 7.5), 100 mM xanthine and 0.05 unit xanthine oxidase was prepared. […] All determinations were performed in triplicate and samples were tested further to ascertain the corresponding IC50 values.

On to `Nc1nc(N)c2[nH]cnc2n1` [2,6-Diaminopurine], for which the IC50 at xanthine oxidase (setting [1]) is above 200 µM.

In the case of `Nc1nc(Cl)c2nc[nH]c2n1` [2-Amino-6-chloropurine], the 50% inhibitory concentration (IC50) on xanthine oxidase (setting [1]) was above 200 µM.

In the case of `Nc1ncc2[nH]cnc2n1` [2-Aminopurine], at xanthine oxidase (setting [1]), the IC50 is above 200 µM.

Regarding `Nc1ncnc2[nH]ncc12` [4-Aminopyrazolo[3,4-d]pyrimidine], the IC50 on xanthine oxidase (setting [2]) was 30.26 ± 0.23 µM.

On to `Cc1cc2nc[nH]c2cc1C` [5,6-Dimethylbenzimidazole], for which the IC50 at xanthine oxidase (setting [1]) is above 200 µM.

`Cc1ccc2[nH]cnc2c1` [5-Methylbenzimidazole]: at xanthine oxidase (setting [1]), the IC50 is above 200 µM.

As to `O=[N+]([O-])c1ccc2[nH]cnc2c1` [5-Nitrobenzimidazole nitrate salt], at xanthine oxidase (setting [2]), the IC50 turned out to be 86.84 ± 0.51 µM.

As to `COc1nc(N)nc2nc[nH]c12` [6-O-Methylguanine], the half-maximal inhibitory concentration (IC50) at xanthine oxidase (setting [1]) was above 200 µM.

`Nc1nc2nc[nH]c2c(=S)[nH]1` [6-Thioguanine]: the IC50 on xanthine oxidase (setting [2]) turned out to be 92.42 ± 0.62 µM.

As for `O=C(O)/C=C(\CC(=O)O)C(=O)O` [trans-aconitic acid], in the test with phosphodiesterases, the “phosphodiesterase inhibitory activity” value was “phosphodiesterase inhibitor”.
